From paper PMC10094593, “Chemical Space Virtual Screening against Hard-to-Drug RNA Methyltransferases DNMT2 and NSUN6” (International Journal of Molecular Sciences, 2023)
Read-outs that look alike come from different tables or passages of the source.

What was measured:
[1] = target: T1, DNMT2 (Homo sapiens, UniProt O14717); assay: Microscale thermophoresis (MST) binding assay, DNMT2; details: for MST pre-screening: DNMT2, ligand concentration 33, 100, 300 µM
T1 construct: made in house; host or cells: E. coli Rosetta2
T1 sequence (O14717 1-391): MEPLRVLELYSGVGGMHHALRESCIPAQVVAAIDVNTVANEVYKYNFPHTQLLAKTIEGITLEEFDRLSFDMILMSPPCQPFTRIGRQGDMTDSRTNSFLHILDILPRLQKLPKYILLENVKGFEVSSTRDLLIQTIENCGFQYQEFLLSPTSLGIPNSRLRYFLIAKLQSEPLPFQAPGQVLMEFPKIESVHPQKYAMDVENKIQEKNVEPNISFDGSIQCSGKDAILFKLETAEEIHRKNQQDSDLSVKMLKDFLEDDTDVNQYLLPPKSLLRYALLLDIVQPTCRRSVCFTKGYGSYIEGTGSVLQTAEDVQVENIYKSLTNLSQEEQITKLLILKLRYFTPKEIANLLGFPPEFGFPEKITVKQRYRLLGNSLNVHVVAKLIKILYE
Method: (§1) Since the constructs of DNMT2 and NSUN6 contain hexa-histidine tags, proteins were labeled using a Monolith His-Tag Labeling Kit RED-Tris-NTA 2nd generation according to the manufacturer’s instructions. This labeling strategy was chosen since it should prevent any interference with the actual binding site of the proteins. Labeled protein was diluted to a concentration of 20 nM into MST buffer (50 mM Hepes, pH 7.5, 150 mM NaCl, 10 mM MgCl2, 1 mM DTT, 0.05% polysorbate-20, 0.1% PEG-8000). All compounds were prepared as stocks dissolved in DMSO to a concentration of 50 mM. […] All measurements were performed on a Monolith Pico instrument (NanoTemper Technologies, Muenchen, Germany) with red light. To induce thermophoresis, medium MST power was selected for DNMT2 and high MST power for NSUN6. All experiments were performed in quadruplicates. […] Obtained dilutions were then mixed 1:1 with labeled protein (20 nM) and incubated for 5 min at room temperature prior to measurement. Experiments were performed in duplicates. All data received were analyzed using the MO. Affinity Analysis software version 2.3 (NanoTemper Technologies, Muenchen, Germany).

[2] = target: T2, NSUN6 (Homo sapiens, UniProt Q8TEA1); assay: Microscale thermophoresis (MST) binding assay, NSUN6; details: for Kd: MST dose-response curve; for MST pre-screening: ligand concentration 33, 100, 300 µM
T2 construct: host or cells: E. coli Rosetta2
T2 sequence (Q8TEA1 1-469): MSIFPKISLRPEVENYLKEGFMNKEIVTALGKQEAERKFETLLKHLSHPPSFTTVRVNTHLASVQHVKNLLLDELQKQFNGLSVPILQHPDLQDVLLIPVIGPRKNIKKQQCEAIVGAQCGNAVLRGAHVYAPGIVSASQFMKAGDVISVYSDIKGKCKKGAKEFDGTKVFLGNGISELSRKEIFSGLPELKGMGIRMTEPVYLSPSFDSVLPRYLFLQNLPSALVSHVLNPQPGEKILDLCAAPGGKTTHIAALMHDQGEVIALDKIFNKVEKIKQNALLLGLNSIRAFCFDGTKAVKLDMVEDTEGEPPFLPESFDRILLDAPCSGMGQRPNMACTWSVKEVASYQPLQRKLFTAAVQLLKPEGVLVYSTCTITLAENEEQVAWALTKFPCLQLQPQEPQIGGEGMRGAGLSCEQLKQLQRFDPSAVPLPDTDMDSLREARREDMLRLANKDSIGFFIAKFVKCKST
Method: as §1

[3] = NSUN6, ≥ = lower limit, upper plateau not completely reached, read-out: KD,app

Kd [2, 3] | Compound | MST pre-screening [1] | MST pre-screening ([2]; NSUN6) | further results
 | CNC(=O)c1cccc(CN[C@H]2CCCN(C(=O)c3coc(C(N)=O)c3)C2)c1 [Compound 1.3] | no concentration-dependent MST-shift (no binding) |  | 
 | C[C@@H](NC(=O)Nc1ccc(C(N)=O)c(F)c1)c1cccc(N2CCOC2=O)c1 [Compound 1.9] | no concentration-dependent MST-shift (no binding) |  | 
42 µM | COc1ccc(C(=O)Nc2cccc(CN[C@H](CN)CO)c2)cc1 [Compound 2.8] |  | concentration-dependent MST-shift (binding) | MST result DNMT2 ('off-target'/selectivity) ([1]; no MST shift at ligand concentration of up to 300 µM): [drawing 33] No binding; selectivity for NSUN6 over DNMT2 ([1]; selective = no MST shift for the other enzyme up to 300 µM): selectivity
≥ 369 µM | CN1CCN(CC[C@@H](N)C(=O)Nc2ccc(-n3ccc(O)n3)c(F)c2)CC1 (racemic) [Compound 2.1] |  | concentration-dependent MST-shift (binding) | 
 | O=C([C@@H]1NC[C@@H](O)[C@H]1O)N1CCN([C@@H]2CCN(c3ccccc3)C2=O)CC1 [Compound 2.11] |  | no concentration-dependent MST-shift (no binding) | 
 | O=C(NCc1cccc2ncccc12)Nc1ccc(C[C@H]2NC(=O)NC2=O)cc1 [Compound 1.12] | no concentration-dependent MST-shift (no binding) |  | 
12 µM | O=C(NCCN/C(O)=C1\N=CC=CC1=O)Nc1cccc2c1CNC2=O [Compound 1.4] |  |  | 
 | Nc1ncnc2c1ncn2[C@@H]1O[C@H](CSCC[C@H](N)C(=O)O)[C@@H](O)[C@H]1O [SAH, S-adenosyl-L-homocysteine, reference compound] |  |  | Kd ([1]; MST dose-response curve, DNMT2, reference ligand): 11.8 µM; Kd ([2]; NSUN6, reference ligand, read-out: KD): 9.1 µM
≥ 116 µM | Nc1ncnc2cc(C(=O)NCC(=O)Nc3ccc4c(c3)OCCO4)ccc12 [Compound 1.14] |  |  | 
 | CN1CCC[C@@H]1CCC(=O)Nc1c[nH]nc1C(=O)NCC(N)=O [Compound 2.6] |  | no concentration-dependent MST-shift (no binding) | 
16.4 µM | Cn1cnc([C@@H]2CNC[C@H]2C(=O)N2CCC[C@@H](CNC(=O)[C@H]3CCCN3)C2)c1 (racemic) [Compound 2.4] |  | concentration-dependent MST-shift (binding) | 
 | Cc1n[nH]c(C)c1NC(=O)CN1CCN(C(=O)c2ccc(C(N)=O)s2)CC1 [Compound 1.2] | no concentration-dependent MST-shift (no binding) |  | 
 | Cc1ccc(F)c(-n2cc(O)c(C(=O)NNc3cc(O)nc4ncccc34)n2)c1 [Compound 1.16] | no concentration-dependent MST-shift (no binding) |  | 
 | N[C@H](CCS(N)(=O)=O)C(=O)Nc1ccc(C2CCNCC2)cc1 [Compound 2.3] |  | no concentration-dependent MST-shift (no binding) | 
 | CNC(=O)c1cccc(CN2CCC[C@H](NC(=O)c3coc(C(N)=O)c3)C2)c1 [Compound 1.5] | no concentration-dependent MST-shift (no binding) |  | 
